Test results as given in patent publication US5166208A, “Fredericamycin A derivatives” (Boston College, priority 1991, dated 1992).
Converted amounts (≈) assume the structure as drawn. Where two headings read alike, the source gives them in different places.

How the values were obtained:
human lung (A549) = assay: In vitro microdilution inhibition, human lung A549; assay type: cell-based; conditions: A549, 72 hours, 50% of cells killed
From the text: (§1) As shown in Table III the compounds of the present invention exert an in vitro antitumor effect. The following cells lines were employed: human lung (A549); resistant human lung with low topo II activity (A549-VP); murine melanoma (B16); human colon tumor (HCT116); human colon tumor with elevated p170 levels (HCTVM); human colon tumor with low topo II activity (HCTVP); and another human colon carcinoma cell line (Moser). In the Table, the designation "NT" indicates the compound was not tested against the specified cell line. The cell lines were maintained in continuous culture at 37°, 5% CO2 and high humidity. Cells were harvested in log phase growth and suspended at concentration of 25,000 cells/mL. A […] aliquot was then added to each well (i.e., 3,750 cells per well) of a 96-well flat bottom plate and the cells were allowed to attach over a 24 hour period. After this 24 hour incubation, a 50 μL sample of the specified compound was added to the first (top) well of each column, and the remaining wells of each column serially diluted, 1:4, and allowed to incubate for 72 hours at 37° C., 5% CO2 and high humidity. Following incubation, 50 μL of freshly prepared stain solution was added to each well. After a 3 hour incubation at room temperature, absorbance was read at 450 nm on a microplate reader to determine the compound concentration at which 50% of the cells were killed, such concentration referred to as the "IC50 ".

[1] = tested on: resistant human lung with low topo II activity (A549-VP); assay: In vitro microdilution inhibition, resistant human lung A549-VP; assay type: cell-based; conditions: A549VP, 72 hours, 50% of cells killed
From the text: as §1

murine melanoma (B16) = assay: In vitro microdilution inhibition, B16; assay type: cell-based; conditions: Mus musculus; B16, 72 hours, 50% of cells killed
From the text: as §1

[2] = tested on: human colon tumor (HCT116); assay: In vitro microdilution inhibition, HCT116; assay type: cell-based; conditions: HCT-116, 72 hours, 50% of cells killed
From the text: as §1

[3] = tested on: human colon tumor with low topo II activity (HCTVP); assay: In vitro microdilution inhibition, HCTVP; assay type: cell-based; conditions: 72 hours, 50% of cells killed
From the text: as §1

[4] = tested on: human colon carcinoma cell line (Moser); assay: In vitro microdilution inhibition, Moser; assay type: cell-based; conditions: 72 hours, 50% of cells killed
From the text: as §1

p388 murine leukemia = assay: In vivo activity against p388 murine leukemia in an acute mouse model; conditions: for AWC (average weight change per mouse): before treatment to day five
Method: CDF1 mice of both sexes weighing between 16 and 25 gm. were used, with a 2 gm. weight range and same sex and source used per experiment. BDF1 mice also were used with the same weight, sex and source parameters. Control and test animals were injected interperitoneally with suspension of 1×10^6 p388 murine leukemia cells (0.5 mL dose) on day 0. Groups of 4-6 mice were used for each dosage amount they were treated with 5 doses on day one. A group of ten saline treated control mice was included in each set of experiments. A 30 day protocol was employed with mean survival time in days being determined for each group of mice with the number of survivors at the end of the 30 day period being noted. The mice were weighed before treatment and again on day five. The values listed for average weight change (AWC) is the average weight change per mouse at the specified dose. The change in weight was taken as a measure of drug toxicity. A loss in weight of up to 2 grams is not considered excessive. The results were determined in terms of % T/C which is the ratio of the mean survival time of the treated group to the mean survival time of the saline treated group times 100.

[5] = tested on: human colon tumor with elevated p170 levels (HCTVM); assay: In vitro microdilution inhibition, HCTVM; assay type: cell-based; conditions: 72 hours, 50% of cells killed
From the text: as §1

p388 mouse leukemia = conditions: in vitro; cited from earlier work
L1210 mouse leukemia = conditions: in vitro; cited from earlier work

Structure (SMILES)	IC50 (human lung (A549)) [µg/mL]	IC50 [1] [µg/mL]	IC50 (murine melanoma (B16)) [µg/mL]	IC50 [2] [µg/mL]	IC50 [3] [µg/mL]	IC50 [4] [µg/mL]	AWC (average weight change per mouse) (p388 murine leukemia; CDF1 (female only), 5 mg/kg)	AWC (average weight change per mouse) (p388 murine leukemia; CDF1 (female only), 15 mg/kg)	% T/C (mean survival time treated/control) (p388 murine leukemia; CDF1 (female only), 45 mg/kg)	response vs control in vivo at 5 mg/kg (p388 murine leukemia; Mus musculus, P388, 720 h, CDF1 (female only), 5 mg/kg, read-out: % T/C (mean survival time treated/control)) [%]	response vs control in vivo at 15 mg/kg (p388 murine leukemia; Mus musculus, P388, 720 h, CDF1 (female only), 15 mg/kg, read-out: % T/C (mean survival time treated/control)) [%]	IC50 [5] [µg/mL]	AWC (average weight change per mouse) (p388 murine leukemia; BDF1 (female only), 5 mg/kg)	AWC (average weight change per mouse) (p388 murine leukemia; BDF1 (female only), 15 mg/kg)	AWC (average weight change per mouse) (p388 murine leukemia; BDF1 (female only), 45 mg/kg)	response vs control in vivo at 5 mg/kg (p388 murine leukemia; Mus musculus, P388, 720 h, BDF1 (female only), 5 mg/kg, read-out: % T/C (mean survival time treated/control)) [%]	response vs control in vivo at 15 mg/kg (p388 murine leukemia; Mus musculus, P388, 720 h, BDF1 (female only), 15 mg/kg, read-out: % T/C (mean survival time treated/control)) [%]	response vs control in vivo at 45 mg/kg (p388 murine leukemia; Mus musculus, P388, 720 h, BDF1 (female only), 45 mg/kg, read-out: % T/C (mean survival time treated/control)) [%]	cytotoxicity (p388 mouse leukemia)	cytotoxicity (L1210 mouse leukemia)
CCCCCc1cc2cc3c(c(OCOC)c2c(OC)n1)C1(CC3)C(=O)c2c(O)c3c(c(O)c2C1=O)C(=O)C=CC3=O [Example 7, 6',7'-Dihydro-1-methoxy-9'-(methoxymethoxy)-3'-(n-pentyl)-spiro[2H-benz[f]indene-2,8'-[8H]cyclopent[g]isoquinoline]-1,3,5,8-tetrone]	5 (≈ 8.75 µM)	8.5 (≈ 14.9 µM)	7 (≈ 12.2 µM)	1.2 (≈ 2.1 µM)	1.2 (≈ 2.1 µM)	5.9 (≈ 10.3 µM)	-2.8	-3.8	Toxic	150	150	–	–	–	–	–	–	–	–	–
CNC1=CC(=O)c2c(O)c3c(c(O)c2C1=O)C(=O)C1(CCc2cccc(OCOC)c21)C3=O (centres unmarked) [Example 12, 2',3'-Dihydro-6-methylamino-7'-(methoxymethoxy)-1H-indene-1'-spiro-2-[4,9-dihydroxy-2H-benz[f]-indene-1,3,5,8-tetrone]]	< 0.03	0.05 (≈ 0.111 µM)	0.03 (≈ 0.0668 µM)	0.03 (≈ 0.0668 µM)	0.03 (≈ 0.0668 µM)	0.03 (≈ 0.0668 µM)	–	–	–	–	–	0.05 (≈ 0.111 µM)	–	–	–	–	–	–	–	–
CCCCCc1cc2cc3c(c(O)c2c(=O)[nH]1)C1(CC3)C(=O)c2c(O)c3c(c(O)c2C1=O)C(=O)C=CC3=O [Example 8, 2',6',7'-Trihydro-4,9,9'-trihydroxy-3'-(n-pentyl)-spiro[2H-benz[f]-indene-2,8'-[8H]cyclopent[g]isoquinoline]-1,1',3,5,8-pentone]	24.5 (≈ 47.7 µM)	26.5 (≈ 51.6 µM)	18 (≈ 35.1 µM)	14.5 (≈ 28.2 µM)	–	18.3 (≈ 35.6 µM)	–	–	–	–	–	–	1.0	-1.5	-2.8	125	135	145	–	–
C/C=C/C=C/c1cc2cc3c(c(O)c2c(=O)[nH]1)C1(CC3)C(=O)c2c(O)c3c(c(O)c2C1=O)C(=O)C(OC)=CC3=O (centres unmarked) [fredericamycin A]	–	–	–	–	–	–	–	–	–	–	–	–	–	–	–	–	–	–	comparable to doxorubicin and actinomycin	comparable to doxorubicin and actinomycin
COCOc1cccc2c1C1(CC2)C(=O)c2c(O)c3c(c(O)c2C1=O)C(=O)C(Nc1cccc(C(=O)O)c1)=CC3=O (centres unmarked) [Example 20, 2',3'-Dihydro-7'-(methoxymethoxy)-1H-indene-1,-spiro-2-[6-(3-carboxyanilino)-4,9-dihydroxy-2H-benz[f]indene-1,2,5,8-tetrone]]	> 16	> 16	> 16	> 16	> 16	> 16	–	–	–	–	–	> 16	–	–	–	–	–	–	–	–
